Laboratory results published in patent US20030095958A1, “Inhibitors of bace” (priority 2001, published 2003).

Each molecule was assayed against BACE (Homo sapiens, UniProt P56817) (assay: Ki Determination for the Inhibition of BACE (FS-1 peptide fluorescence cleavage assay)). Conditions: apparent Ki; 50 nM BACE, 10 μM FS-1 substrate, 0.1M sodium acetate pH 4.5.
Assay type: biochemical
In short: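 Human BACE (50 nM) was preincubated 15 min at room temperature with compound (2% DMSO) in 0.1 M sodium acetate pH 4.5, then 10 μM FS-1 peptide was added. Cleavage was followed by fluorescence (ex 355/em 495 nm), and apparent Ki came from fitting to the integrated competitive tight-binding inhibition equation.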

Sequence of BACE (P56817 46-501): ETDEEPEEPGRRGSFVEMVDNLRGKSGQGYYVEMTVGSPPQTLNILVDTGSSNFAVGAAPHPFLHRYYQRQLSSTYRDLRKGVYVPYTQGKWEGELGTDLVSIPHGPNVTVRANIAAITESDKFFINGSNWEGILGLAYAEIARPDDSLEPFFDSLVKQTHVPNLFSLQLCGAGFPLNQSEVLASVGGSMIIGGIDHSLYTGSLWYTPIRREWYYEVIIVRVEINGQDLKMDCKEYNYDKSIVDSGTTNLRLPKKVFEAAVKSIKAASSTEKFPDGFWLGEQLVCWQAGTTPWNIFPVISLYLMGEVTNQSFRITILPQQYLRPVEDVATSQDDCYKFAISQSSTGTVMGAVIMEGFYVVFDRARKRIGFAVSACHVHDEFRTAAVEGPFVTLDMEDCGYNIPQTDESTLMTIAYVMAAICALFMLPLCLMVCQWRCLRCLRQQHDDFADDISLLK

`FC(F)(F)c1ccccc1OCc1cc(-c2ccc3ccccc3c2)c(COc2ccccc2C(F)(F)F)cc1C1=CCNCC1` [Compound 339, 4-[4-Naphthalen-2-yl-2,5-bis-(2-trifluoromethyl-phenoxymethyl)-phenyl]-1,2,3,6-tetrahydro-pyridine] was tested. Which Ki did it give?
Its Ki is 3 to 30 µM.

For `FC(F)(F)c1ccccc1OCc1cc(-c2cccnc2)c(COc2ccccc2C(F)(F)F)cc1C1=CCNCC1` [Compound 340, 3-[4-(1,2,3,6-Tetrahydro-pyridin-4-yl)-2,5-bis-(2-trifluoromethyl-phenoxymethyl)-phenyl]-pyridine], which Ki is on record?
The Ki was less than 3 µM.

`FC(F)(F)c1ccccc1OCc1cc(-c2ccncc2)c(COc2ccccc2C(F)(F)F)cc1C1=CCNCC1` [Compound 341, 4-[4-(1,2,3,6-Tetrahydro-pyridin-4-yl)-2,5-bis-(2-trifluoromethyl-phenoxymethyl)-phenyl]-pyridine] was tested. Which Ki did it give?
Its Ki is less than 3 µM.

Which Ki does the source give for `FC(F)(F)c1ccccc1OCc1cc(-c2ccsc2)c(COc2ccccc2C(F)(F)F)cc1C1=CCNCC1` [Compound 342, 4-[4-Thiophen-3-yl-2,5-bis-(2-trifluoromethyl-phenoxymethyl)-phenyl]-1,2,3,6-tetrahydro-pyridine] here?
Its Ki is less than 3 µM.

`FC(F)(F)c1ccccc1OCc1cc(-c2ccoc2)c(COc2ccccc2C(F)(F)F)cc1C1=CCNCC1` [Compound 343, 4-[4-Furan-3-yl-2,5-bis-(2-trifluoromethyl-phenoxymethyl)-phenyl]-1,2,3,6-tetrahydro-pyridine] was tested. Which Ki did it give?
Its Ki is less than 3 µM.

How did the Ki turn out when `O=[N+]([O-])c1ccccc1-c1cc(COc2ccccc2C(F)(F)F)c(C2=CCNCC2)cc1COc1ccccc1C(F)(F)F` [Compound 344, 4-[2′-Nitro-2,5-bis-(2-trifluoromethyl-phenoxymethyl)-biphenyl-4-yl]-1,2,3,6-tetrahydro-pyridine] was run?
The Ki was less than 3 µM.

How did the Ki turn out when `FC(F)(F)c1ccccc1OCc1cc(-c2cccs2)c(COc2ccccc2C(F)(F)F)cc1C1=CCNCC1` [Compound 345, 4-[4-Thiophen-2-yl-2,5-bis-(2-trifluoromethyl-phenoxymethyl)-phenyl]-1,2,3,6-tetrahydro-pyridine] was run?
The Ki was less than 3 µM.

`FC(F)(F)c1ccccc1OCc1cc(-c2ccco2)c(COc2ccccc2C(F)(F)F)cc1C1=CCNCC1` [Compound 346, 4-[4-Furan-2-yl-2,5-bis-(2-trifluoromethyl-phenoxymethyl)-phenyl]-1,2,3,6-tetrahydro-pyridine] was tested. Which Ki did it give?
The Ki was less than 3 µM.

With `Fc1ccccc1-c1cc(COc2ccccc2C(F)(F)F)c(C2=CCNCC2)cc1COc1ccccc1C(F)(F)F` [Compound 347, 4-[2′-Fluoro-2,5-bis-(2-trifluoromethyl-phenoxymethyl)-biphenyl-4-yl]-1,2,3,6-tetrahydro-pyridine] as the molecule, how does the Ki read?
The Ki was less than 3 µM.

For `FC(F)(F)c1ccccc1OCc1cc(-c2ccccc2Cl)c(COc2ccccc2C(F)(F)F)cc1C1=CCNCC1` [Compound 348, 4-[2′-Chloro-2,5-bis-(2-trifluoromethyl-phenoxymethyl)-biphenyl-4-yl]-1,2,3,6-tetrahydro-pyridine], which Ki is on record?
Its Ki is less than 3 µM.

`Fc1cccc(F)c1-c1cc(COc2ccccc2C(F)(F)F)c(C2=CCNCC2)cc1COc1ccccc1C(F)(F)F` [Compound 349, 4-[2′,6′-Difluoro-2,5-bis-(2-trifluoromethyl-phenoxymethyl)-biphenyl-4-yl]-1,2,3,6-tetrahydro-pyridine] was tested. Which Ki did it give?
Its Ki is less than 3 µM.

Which Ki does the source give for `CC(=O)c1ccccc1-c1cc(COc2ccccc2C(F)(F)F)c(C2=CCNCC2)cc1COc1ccccc1C(F)(F)F` [Compound 350, 1-[4′-(1,2,3,6-Tetrahydro-pyridin-4-yl)-2′,5′-bis-(2-trifluoromethyl-phenoxymethyl)-biphenyl-2-yl]-ethanone] here?
The Ki was less than 3 µM.

With `Oc1cccc(-c2cc(COc3ccccc3C(F)(F)F)c(C3=CCNCC3)cc2COc2ccccc2C(F)(F)F)c1` [Compound 351, 4′-(1,2,3,6-Tetrahydro-pyridin-4-yl)-2′,5′-bis-(2-trifluoromethyl-phenoxymethyl)-biphenyl-3-ol] as the molecule, how does the Ki read?
The Ki was less than 3 µM.

`Oc1ccc(-c2cc(COc3ccccc3C(F)(F)F)c(C3=CCNCC3)cc2COc2ccccc2C(F)(F)F)cc1` [Compound 352, 4′-(1,2,3,6-Tetrahydro-pyridin-4-yl)-2′,5′-bis-(2-trifluoromethyl-phenoxymethyl)-biphenyl-4-ol] was tested. Which Ki did it give?
The Ki was less than 3 µM.

`O=[N+]([O-])c1cccc(-c2cc(COc3ccccc3C(F)(F)F)c(C3=CCNCC3)cc2COc2ccccc2C(F)(F)F)c1` [Compound 353, 4-[3′-Nitro-2,5-bis-(2-trifluoromethyl-phenoxymethyl)-biphenyl-4-yl]-1,2,3,6-tetrahydro-pyridine] was tested. Which Ki did it give?
The Ki was less than 3 µM.

Which Ki does the source give for `O=[N+]([O-])c1ccc(-c2cc(COc3ccccc3C(F)(F)F)c(C3=CCNCC3)cc2COc2ccccc2C(F)(F)F)cc1` [Compound 354, 4-[4′-Nitro-2,5-bis-(2-trifluoromethyl-phenoxymethyl)-biphenyl-4-yl]-1,2,3,6-tetrahydro-pyridine] here?
The Ki was less than 3 µM.

With `CC(O)c1ccccc1-c1cc(COc2ccccc2C(F)(F)F)c(C2=CCNCC2)cc1COc1ccccc1C(F)(F)F` (stereo not drawn) [Compound 355, 1-[4′-(1,2,3,6-Tetrahydro-pyridin-4-yl)-2′,5′-bis-(2-trifluoromethyl-phenoxymethyl)-biphenyl-2-yl]-ethanol] as the molecule, how does the Ki read?
The Ki was less than 3 µM.

Which Ki does the source give for `FC(F)(F)c1ccccc1OCc1cc(COc2ccccc2C(F)(F)F)c(C2=CCNCC2)cc1COc1ccccc1C(F)(F)F` [Compound 356, 4-[2,4,5-Tris-(2-trifluoromethyl-phenoxymethyl)-phenyl]-1,2,3,6-tetrahydro-pyridine] here?
Its Ki is less than 3 µM.

For `FC(F)(F)c1ccccc1OCc1cc(-c2cc3ccccc3o2)c(COc2ccccc2C(F)(F)F)cc1C1=CCNCC1` [Compound 357, 4-[4-Benzofuran-2-yl-2,5-bis-(2-trifluoromethyl-phenoxymethyl)-phenyl]-1,2,3,6-tetrahydro-pyridine], which Ki is on record?
The Ki was less than 3 µM.

How did the Ki turn out when `FC(F)(F)c1ccccc1OCc1cc(-c2ccc[nH]2)c(COc2ccccc2C(F)(F)F)cc1C1=CCNCC1` [Compound 358, 4-[4-(1H-Pyrrol-2-yl)-2,5-bis-(2-trifluoromethyl-phenoxymethyl)-phenyl]-1,2,3,6-tetrahydro-pyridine] was run?
The Ki was less than 3 µM.

With `Nc1ccc(-c2cc(COc3ccccc3C(F)(F)F)c(C3=CCNCC3)cc2COc2ccccc2C(F)(F)F)cc1` [Compound 359, 4′-(1,2,3,6-Tetrahydro-pyridin-4-yl)-2′,5′-bis-(2-trifluoromethyl-phenoxymethyl)-biphenyl-4-ylamine] as the molecule, how does the Ki read?
Its Ki is less than 3 µM.

With `FC(F)(F)c1ccccc1OCc1cc(-c2ccccc2)ccc1C1=CCNCC1` [Compound 360, 4-[3-(2-Trifluoromethyl-phenoxymethyl)-biphenyl-4-yl]-1,2,3,6-tetrahydro-pyridine] as the molecule, how does the Ki read?
Its Ki is less than 3 µM.

Which Ki does the source give for `Oc1ccc(-c2ccc(C3=CCNCC3)c(COc3ccccc3C(F)(F)F)c2)cc1` [Compound 361, 4′-(1,2,3,6-Tetrahydro-pyridin-4-yl)-3′-(2-trifluoromethyl-phenoxymethyl)-biphenyl-4-ol] here?
The Ki was 3 to 30 µM.

`Oc1ccccc1-c1ccc(C2=CCNCC2)c(COc2ccccc2C(F)(F)F)c1` [Compound 362, 4′-(1,2,3,6-Tetrahydro-pyridin-4-yl)-3′-(2-trifluoromethyl-phenoxymethyl)-biphenyl-2-ol] was tested. Which Ki did it give?
Its Ki is 3 to 30 µM.

For `FC(F)(F)c1ccccc1OCc1cc(-c2ccoc2)ccc1C1=CCNCC1` [Compound 363, 4-[4-Furan-3-yl-2-(2-trifluoromethyl-phenoxymethyl)-phenyl]-1,2,3,6-tetrahydro-pyridine], which Ki is on record?
Its Ki is 3 to 30 µM.

How did the Ki turn out when `NC(=O)c1cccc(-c2cc(COc3ccccc3C(F)(F)F)c(C3=CCNCC3)cc2COc2ccccc2C(F)(F)F)c1` [Compound 364, 4′-(1,2,3,6-Tetrahydro-pyridin-4-yl)-2′,5′-bis-(2-trifluoromethyl-phenoxymethyl)-biphenyl-3-carboxylic acid amide] was run?
The Ki was less than 3 µM.

Which Ki does the source give for `COc1ccc(-c2cc(COc3ccccc3C(F)(F)F)c(C3=CCNCC3)cc2COc2ccccc2C(F)(F)F)cc1` [Compound 365, 4-[4′-Methoxy-2,5-bis-(2-trifluoromethyl-phenoxymethyl)-biphenyl-4-yl]-1,2,3,6-tetrahydro-pyridine] here?
Its Ki is less than 3 µM.

With `OCc1ccc(-c2cc(COc3ccccc3C(F)(F)F)c(C3=CCNCC3)cc2COc2ccccc2C(F)(F)F)cc1` [Compound 366, [4′-(1,2,3,6-Tetrahydro-pyridin-4-yl)-2′,5′-bis-(2-trifluoromethyl-phenoxymethyl)-biphenyl-4-yl]-methanol] as the molecule, how does the Ki read?
The Ki was less than 3 µM.

`OCc1ccccc1-c1cc(COc2ccccc2C(F)(F)F)c(C2=CCNCC2)cc1COc1ccccc1C(F)(F)F` [Compound 367, [4′-(1,2,3,6-Tetrahydro-pyridin-4-yl)-2′,5′-bis-(2-trifluoromethyl-phenoxymethyl)-biphenyl-2-yl]-methanol] was tested. Which Ki did it give?
Its Ki is less than 3 µM.

With `COC(=O)c1cccc(-c2cc(COc3ccccc3C(F)(F)F)c(C3=CCNCC3)cc2COc2ccccc2C(F)(F)F)c1` [Compound 368, 4′-(1,2,3,6-Tetrahydro-pyridin-4-yl)-2′,5′-bis-(2-trifluoromethyl-phenoxymethyl)-biphenyl-3-carboxylic acid methyl ester] as the molecule, how does the Ki read?
The Ki was less than 3 µM.

`COC(=O)c1ccc(-c2cc(COc3ccccc3C(F)(F)F)c(C3=CCNCC3)cc2COc2ccccc2C(F)(F)F)cc1` [Compound 369, 4′-(1,2,3,6-Tetrahydro-pyridin-4-yl)-2′,5′-bis-(2-trifluoromethyl-phenoxymethyl)-biphenyl-4-carboxylic acid methyl ester] was tested. Which Ki did it give?
Its Ki is less than 3 µM.

With `O=C(OCc1ccccc1-c1cc(COc2ccccc2C(F)(F)F)c(C2=CCNCC2)cc1COc1ccccc1C(F)(F)F)c1ccco1` [Compound 370, Furan-2-carboxylic acid 4′-(1,2,3,6-tetrahydro-pyridin-4-yl)-2′,5′-bis-(2-trifluoromethyl-phenoxymethyl)-biphenyl-2-ylmethyl ester] as the molecule, how does the Ki read?
The Ki was less than 3 µM.

How did the Ki turn out when `FC(F)(F)c1ccccc1OCc1cc(C2=CCNCC2)ccc1C1=CCNCC1` [Compound 371, 4-[4-(1,2,3,6-Tetrahydro-pyridin-4-yl)-2-(2-trifluoromethyl-phenoxymethyl)-phenyl]-1,2,5,6-tetrahydro-pyridine] was run?
The Ki was 3 to 30 µM.
